Data set [1] relates to common bacteria associated with failed root canal therapy. Description: Drug efficacy: zones of inhibition on agar plates. Format: cell-based. Here is the method:
FIG. 6 is graph showing the antimicrobial efficacy of various dose strengths of CHX on bacterial growth on agar plates. The efficacy of the eluted amounts of CHX was tested to evaluate anti-microbial activity at various dose strengths compared to a positive control (Ampicillin). This pilot study was done to obtain a range of CHX elution amounts by weight required to kill common bacteria associated with failed root canal therapy.

For data set [2] the following is noted: species not given; cited from earlier work.
Another data set concerns RAT. The following applies: cited from earlier work.

The values below come from patent US20090176891A1, “DENTAL COMPOSITION AND METHOD OF USE” (priority 2007, published 2009).

Like-named read-outs stand apart in the source and are kept apart here.

In the case of `CC1(C)S[C@@H]2[C@H](NC(=O)[C@H](N)c3ccccc3)C(=O)N2[C@H]1C(=O)O` [Ampicillin], in data set [1] (10 mg, positive control), the zone of inhibition (as a rule, the size of the clear area around the sample on an inoculated plate) at 10000 µg/disc is 14.5 mm.
Consider `[H]/N=C(\N/C(=N/[H])NCCCCCCNC(=N)NC(=N)Nc1ccc(Cl)cc1)Nc1ccc(Cl)cc1` [CHX, chlorohexidine], for which, in data set [1] (4 μg, compared with water (negative control)), the antimicrobial effect entry is recorded as “some antimicrobial effect can be seen”. The “zones of inhibition compared with Ampicillin” value in data set [1] (31 to 250 μg) is “equal to or better than that of Ampicillin”. For the same molecule, the zone of inhibition at 0.5 µg/disc in data set [1] (dose 0.5 μg) amounted to 0 mm. This molecule yielded a zone of inhibition at 1 µg/disc in data set [1] (dose 1 μg) of 0 mm. This molecule also had a zone of inhibition at 2 µg/disc in data set [1] (dose 2 μg) of 0 mm. In data set [1] (dose 4 μg), this molecule showed a zone of inhibition at 4 µg/disc of 7 mm. Further, in data set [1] (dose 7.8 μg), the zone of inhibition at 7.8 µg/disc was determined as 9 mm. In data set [1] (dose 15.6 μg), the zone of inhibition at 15.6 µg/disc turned out to be 12.3 mm. Further, the zone of inhibition at 31.25 µg/disc in data set [1] (dose 31.25 μg) was found to be 14.3 mm. The molecule also showed a zone of inhibition at 62.5 µg/disc in data set [1] (dose 62.5 μg) of 16.7 mm. In data set [1] (dose 125 μg), the zone of inhibition at 125 µg/disc was determined as 16.3 mm. This molecule yielded a zone of inhibition at 250 µg/disc in data set [1] (dose 250 μg) of 17.3 mm. In addition, in data set [2], the 50% lethal dose (LD50) (in general, the dose expected to kill half of the subjects tested) is 2000 mg/kg.
Regarding `CCOC(=O)c1ccc(N(C)C)cc1` [I3, Ethyl-4-N,N-dimethylaminobenzoate], in the data set on RAT (RAT), the median lethal dose (LD50) was 2000 mg/kg.
Regarding `C=C(C)C(=O)OCCN(C)C` [I4, N,N-Dimethylaminoethyl Methacrylate], the 50% lethal dose (LD50) with RAT (RAT ORAL) was 1751 mg/kg.
Consider `[Cl-].c1ccc([I+]c2ccccc2)cc1` [I5, Diphenyliodonium chloride], for which the LD50 in data set [2] is on record as 60 mg/kg.
For the molecule `C=C(C)C(=O)OCC(O)COc1ccc(C(C)(C)c2ccc(OCC(O)COC(=O)C(=C)C)cc2)cc1` (centres unmarked) [M3, 2,2-bis[p-(2-hydroxy-3-methacryloxypropoxy)phenyl]propane], the LD50 in the data set on RAT (RAT) was greater than 5000 mg/kg.
Regarding `C=C(C)C(=O)OCCOCCOCCOC(=O)C(=C)C` [M4, triethylene glycol dimethacrylate], in data set [2], the LD50 is reported as 10750 mg/kg.
Consider `C=C(C)C(=O)OCCO` [M5, hydroxyl ethyl methacrylate], for which the 50% lethal dose (LD50) in data set [2] is given as 4680 mg/kg.
